# Assay results published in patent publication US20240374631A1, “A COMPOSITION FOR IMPROVING GUT MICROBIOTA, BEHAVIOURAL PATTERN, ALPHA-SYNUCLEIN LEVELS, SLEEP PATTERN AND/OR SERUM MELATONIN” (GN Corporation Co Ltd, priority 2021, published 2024).
# Test system: gut microbiota
# Assay: Gut microbiome analysis (16S rRNA sequencing of fecal samples) in STAM model of NASH
# Assay type: in vivo, C57BL/6J mice
# Conditions: pre
# From the text: The study is reported in accordance with Animal Research: Reporting of In Vivo Experiments (ARRIVE) guidelines. C57BL/6J mice were obtained from Japan SLC, Inc. (Japan). All animals used in this study were cared for under the following guidelines: Act on Welfare and Management of Animals (Ministry of the Environment, Japan, Act No. 105 of Oct. 1, 1973), standards relating to the care and management of laboratory animals and relief of pain (Notice No. 88 of the Ministry of the Environment, Japan, Apr. 28, 2006) and the guidelines for proper conduct of animal experiments (Science Council of Japan, Jun. 1, 2006). Protocol approvals were obtained from SMC Laboratories, Japan's IACUC (Study reference no: […] Mice were maintained in a specific pathogen-free (SPF) facility under controlled conditions of temperature (23±3° C.), humidity (50±20%), lighting (12-hour artificial light and dark cycles; light from 8:00 to 20:00) and air exchange. The STAM model of NASH was induced as previously described [D10]. Mice were given a single subcutaneous injection of 200 μg streptozotocin (STZ, Sigma-Aldrich, USA) solution 2 days after birth and fed with a high-fat diet (HFD, 57 kcal % fat, Cat #HFD32, CLEA Japan, Inc., Japan) from 4-9 weeks of age. All mice develop liver steatosis and diabetes and at […] mice had established steatohepatitis, histologically. Studygroups: There were five study groups, described below. Eight mice were included in each study group. Eight NASH mice were orally administered vehicle supplemented with AFO-202 Beta Glucan at a dose of 1 mg/kg in a volume of 5 mL/kg once daily from 6 to 9 weeks of age. Eight NASH mice were orally administered vehicle supplemented with Telmisartan at a dose of 10 mg/kg once daily from 6 to 9 weeks of age. Frequency: Fecal samples were collected at the 6 weeks of age (before administration) and 9 weeks of age (before sacrifice). Procedure: At 6 weeks of age, fecal samples were collected from each mouse by clean catch method. […] A sterile petri dish was placed on the bench. Gently massage the abdomen, position the bottom of mouse over a fresh petri dish, and collect 1-2 fecal pellets. At sacrifice, fecal samples were aseptically collected from cecum. The tubes with feces were placed on ice immediately. These tubes were snap frozen in liquid nitrogen and stored at -80° C. for shipping. In this analysis, the 16S rRNA sequence data acquired by the next-generation sequencer from the fecal […] was used to perform community analysis using the QIIME2 program for microbial community analysis. The raw read data in FASTQ format output from the next-generation sequencer was trimmed to remove adapter sequences and low QV regions that may be included in the data. Cutadapt was used to remove adapter sequences from DNA sequencing reads. Trimmomatic was used as read trimming tool for Illumina NGS data. The adapter sequence was trimmed using the adapter trimming program “cutadapt” if the Trimming of the region at the end of the read sequence overlapped the corresponding sequence by at least one base (mismatch tolerance: 20%). When reads containing N were present in at least one of Read1 and Read2, both Read1 and Read2 were removed. Trimming of low QV regions was performed on the read data after processing using the QV trimming program “Trimmomatic” under the following conditions. The window of 20 bases is slid from the 5' side, and the area where the average QV is less than 20 is trimmed. After trimming, only the reads with more than 50 bases remaining in both Read1 and Read2 were taken as output. The microbial community analysis based on 16S rRNA sequence was performed on the sequence data trimmed in the previous section using the microbial community analysis program “QIIME2”. The annotation program “sklearn” included in QIIME2 is used to annotate the ASV (OTU) sequences. […]
compound,measurement,setting,value
CCCc1nc2c(C)cc(-c3nc4ccccc4n3C)cc2n1Cc1ccc(-c2ccccc2C(=O)O)cc1 [Telmisartan],Abundance S24-7/—/—,line r81,327
same,Abundance Lachnospiraceae/[Ruminococcus]/gnavus,line r83,120
same,Abundance Ruminococcaceae/Oscillospira/—,line r84,284
same,Abundance Ruminococcaceae/Anaerotruncus/—,line r85,638
same,Abundance Alcaligenaceae/Sutterella/—,line r86,191
same,Abundance S24-7/—/—,line r87,394
same,Abundance F16/—/—,line r88,329
same,Abundance Other/Other/Other,line r90,276
same,Abundance Lachnospiraceae/[Ruminococcus]/gnavus,line r91,168
same,Abundance S24-7/—/—,line r92,476
same,Abundance Rikenellaceae/—/—,line r93,259
same,Abundance Lachnospiraceae/[Ruminococcus]/gnavus,line r94,62
same,Abundance Lachnospiraceae/—/—,line r95,250
same,Abundance Clostridiaceae/Other/Other,line r96,693
same,Abundance Lachnospiraceae/—/—,line r97,78
same,Abundance Ruminococcaceae/Oscillospira/—,line r98,160
same,Abundance Enterococcaceae/Enterococcus/—,line r99,32
same,Abundance Rikenellaceae/—/—,line r100,239
same,Abundance S24-7/—/—,line r101,208
same,Abundance Lactobacillaceae/Lactobacillus/reuteri,line r102,0
same,Abundance Bacteroidaceae/Bacteroides/acidifaciens,line r103,161
same,Abundance Ruminococcaceae/Oscillospira/—,line r104,202
same,Abundance Enterobacteriaceae/Escherichia/coli,line r105,0
same,Abundance Ruminococcaceae/Oscillospira/—,line r106,152
same,Abundance —/—/—,line r107,228
same,Abundance S24-7/—/—,line r108,157
same,Abundance —/—/—,line r109,988
same,Abundance Other/Other/Other,line r110,463
same,Abundance Lachnospiraceae/—/—,line r111,46
same,Abundance Lachnospiraceae/[Ruminococcus]/gnavus,line r112,148
same,Abundance Lachnospiraceae/—/—,line r113,390
same,Abundance Enterobacteriaceae/Klebsiella/Other,line r114,0
same,Abundance Lachnospiraceae/—/—,line r115,76
same,Abundance Enterobacteriaceae/Klebsiella/—,line r116,0
same,Abundance —/—/—,line r117,0
same,Abundance Lactobacillaceae/Lactobacillus/—,line r118,4
same,Abundance Other/Other/Other,line r119,57
same,Abundance —/—/—,line r120,209
same,Abundance Erysipclotrichaceae/Allobaculum/—,line r121,203
same,Abundance —/—/—,line r122,131
same,Abundance Lachnospiraceae/—/—,line r123,207
same,Abundance —/—/—,line r124,362
same,Abundance Other/Other/Other,line r125,58
same,Abundance Lactobacillaceae/Lactobacillus/reuteri,line r126,0
same,Abundance Ruminococcaceae/Oscillospira/—,line r127,158
same,Abundance Lachnospiraceae/—/—,line r128,50
same,Abundance S24-7/—/—,line r130,64
same,Abundance Lachnospiraceae/—/—,line r131,315
same,Abundance S24-7/—/—,line r132,104
same,Abundance S24-7/—/—,line r133,60
same,Abundance Lachnospiraceae/—/—,line r134,19
same,Abundance —/—/—,line r135,28
same,Abundance Coriobacteriaceae/Adlercreutzia/—,line r136,110
same,Abundance —/—/—,line r137,200
same,Abundance Clostidiaceae/Other/Other,line r138,0
same,Abundance Turicibacteraceae/Turicibacter/—,line r139,125
same,Abundance Ruminococcaceae/Ruminococcus/—,line r140,193
same,Abundance Ruminococcaceae/Oscillospira/—,line r141,215
same,Abundance Dehalobacteriaceae/Dehalobacterium/—,line r142,43
same,Abundance Staphylococcaceae/Staphylococcus/Other,line r143,110
same,Abundance Rikenellaceae/—/—,line r144,61
same,Abundance Lachnospiraceae/—/—,line r145,87
same,Abundance —/—/—,line r146,60
same,Abundance Staphylococcaceae/Staphylococcus/sciuri,line r147,34
same,Abundance —/—/—,line r148,103
same,Abundance Ruminococcaceae/Ruminococcus/—,line r149,157
same,Abundance Coriobacteriaceae/Adlercreutzia/—,line r150,101
same,Abundance Ruminococcaceae/Oscillospira/—,line r151,61
same,Abundance Lachnospiraceae/Clostridium/Other,line r152,85
same,Abundance Lachnospiraceae/Coprococcus/—,line r153,151
same,Abundance Desulfovibrionaceae/—/—,line r154,50
same,Abundance —/—/—,line r155,94
same,Abundance Lachnospiraceae/—/—,line r156,0
same,Abundance Dehalobacteriaceae/Dehalobacterium/—,line r157,41
same,Abundance Coriobacteriaceae/Adlercreutzia/—,line r158,90
same,Abundance Lachnospiraceae/—/—,line r159,37
same,Abundance Lachnospiraceae/—/—,line r160,168
same,Abundance Ruminococcaceae/Oscillospira/—,line r161,0
same,Abundance Streptococcaceae/Streptococcus/—,line r163,0
same,Abundance Lachnospiraceae/[Ruminococcus]/gnavus,line r164,83
same,Abundance Lachnospiraceae/—/—,line r165,102
same,Abundance Lachnospiraceae/—/—,line r166,231
same,Abundance Coriobacteriaceae/Adlercreutzia/—,line r167,74
same,Abundance Erysipelotrichaceae/Clostridium/cocleatum,line r169,0
same,Abundance S24-7/—/—,line r170,53
same,Abundance Lachnospiraceae/—/—,line r171,27
same,Abundance Bacteroidaceae/Bacteroides/—,line r172,55
same,Abundance Ruminococcaceae/Oscillospira/—,line r173,59
same,Abundance Ruminococcaceae/—/—,line r174,41
same,Abundance Lachnospiraceae/Other/Other,line r175,52
same,Abundance Lachnospiraceae/Dorea/—,line r176,28
same,Abundance Lachnospiraceae/—/—,line r177,0
same,Abundance S24-7/—/—,line r178,168
same,Abundance Lachnospiraceae/—/—,line r179,92
same,Abundance Lactobacillaceae/Lactobaccilus/Other,line r180,0
same,Abundance —/—/—,line r181,34
same,Abundance Ruminococcaceae/Oscillospira/—,line r182,99
same,Abundance S24-7/—/—,line r183,55
same,Abundance S24-7/—/—,line r184,67
same,Abundance [Mogibacteriaceae]/—/—,line r185,36
same,Abundance Peptococcaceae/—/—,line r186,43
same,Abundance —/—/—,line r187,13
same,Abundance —/—/—,line r188,0
same,Abundance S24-7/—/—,line r189,76
